One assay concerns the target T1, human CD38 (Homo sapiens, UniProt P28907).
T1 construct: purchased Bio-Techne GmbH AVI2404
T1 sequence (P28907 1-300): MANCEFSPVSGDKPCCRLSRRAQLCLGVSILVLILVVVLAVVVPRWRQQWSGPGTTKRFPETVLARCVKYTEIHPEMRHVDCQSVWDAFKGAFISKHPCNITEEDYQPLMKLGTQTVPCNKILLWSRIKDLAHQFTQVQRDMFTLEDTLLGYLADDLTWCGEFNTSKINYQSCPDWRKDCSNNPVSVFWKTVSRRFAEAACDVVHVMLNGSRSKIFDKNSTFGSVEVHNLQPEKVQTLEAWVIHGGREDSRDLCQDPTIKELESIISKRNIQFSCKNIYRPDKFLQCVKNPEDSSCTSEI
Description: NAD+ cyclase activity assay with human recombinant CD38 protein (ε-NAD fluorescence). It counts as biochemical. To be noted: 1.9 nM human CD38, substrate ε-NAD, 30 min preincubation, fluorescence 300/410 nm. The protocol:
(§1) Example 4: NAD^+ Cydase Activity Assay with Human or Mouse Recombinant CD38 Protein
(§2) The following assay was used to determine the ability of compounds of the invention to inhibit the hydrolysis of NAD^+ by the human or mouse enzyme, CD38.
(§3) Reaction buffer: 40 mM HEPES/NaOH pH 7.5, 250 mM sucrose, 0.01% Tween
(§4) Final concentrations: 0.6 nM mouse CD38 (4947-AC, Bio-Techne GmbH) 1.9 nM human CD38 (AVI2404, Bio-Techne GmbH)
(§5) Substrate: […] Nicotinamide 1,N6-ethenoadenine dinucleotide (&-NAD)
(§6) Read-out: Fluorescence intensity (extinction 300 nm/emission 410 nm)
(§7) Required reaction buffer, required CD38 concentration in reaction buffer and required e-NAD concentration in reaction buffer were prepared. Thereafter, 8 μL of CD38 in reaction buffer was added to High Control and compound concentration wells in 384 well plate (Corning #4514, 384 well, nonbinding surface, low volume, round bottom) and 8 μL of reaction buffer to Low Control. Compound dilutions were transferred via pintool technology that transfers 42.5 nL compound dilutions (12-point dose-response with factor three dilutions in 100% DMSO) well-to-well. Plate was subsequently shaken for 15 s at 1450 rpm and sealed for incubation for 30 min at room temperature. Thereafter, 2 μL of e-NAD in reaction buffer were added with Integra Voyager. After shaking for 15 s at 1450 rpm, plate was sealed, and assay signal were measured continuously with PHERAstar® fluorescence intensity module (extinction 300 nm/emission 410 nm).
(§8) Dose-response curves were constructed using twelve-pointfactor three dilutions in triplicates per plate. High control (full enzyme activity) was set to assay signal of CD38 and e-NAD in presence of vehicle (DMSO) and Low control (full enzyme inhibition) was set to assay signal of e-NAD and vehicle (DMSO) in absence of CD38. For data analysis, fluorescent signal of traces corresponding to each compound concentration and High and Low control were monitored over time. Each run, High Control (full enzyme activity) was fitted to Linear equation via GraphPad Prism to determine CD38 activity from the slope and determine the time interval of linear phase of reaction to account for minor fluctuations. Thereafter, slopes of all compound concentrations were determined via fitting to same linear equation (GraphPad Prism) over the same time interval as determined for High control. […] Unless otherwise stated, fitting of curves were fixed to 100%-inhibition and unlocked for 0%-inhibition.

The next assay has as its target T2, mouse CD38 (Mus musculus, UniProt P56528).
T2 construct: purchased Bio-Techne GmbH 4947-AC
T2 sequence (P56528 1-304): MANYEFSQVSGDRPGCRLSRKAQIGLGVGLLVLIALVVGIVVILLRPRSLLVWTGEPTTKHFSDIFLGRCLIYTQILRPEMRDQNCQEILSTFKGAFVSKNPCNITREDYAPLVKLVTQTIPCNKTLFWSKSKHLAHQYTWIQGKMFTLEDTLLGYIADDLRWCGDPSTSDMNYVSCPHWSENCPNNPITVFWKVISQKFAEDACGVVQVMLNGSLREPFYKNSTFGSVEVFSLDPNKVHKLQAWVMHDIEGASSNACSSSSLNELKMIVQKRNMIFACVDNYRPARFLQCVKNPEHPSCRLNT
Description: NAD+ cyclase activity assay with mouse recombinant CD38 protein (ε-NAD fluorescence). It counts as biochemical. To be noted: 0.6 nM mouse CD38, substrate ε-NAD, 30 min preincubation, fluorescence 300/410 nm. The method, then:
as §1, §2, §3, §4, §5, §6, §7, §8

SMILES strings stand for the structures.

For the compound `C[C@H]1CCCC[C@@H]1NC(=O)c1cc(F)c2c(c1)-c1cncn1CCO2` (relative stereo) [Compound 174A, 8-Fluoro-N-(trans-2-methylcyclohexyl)-5,6-dihydrobenzo[f]imidazo[1,5-d][1,4]oxazepine-10-carboxamide], the IC50 is less than 30 nM on human CD38 and less than 1 nM on mouse CD38.
Turning to `C[C@@H]1CCCC[C@@H]1NC(=O)c1cc(F)c2c(c1)-c1cncn1CCO2` (relative stereo) [Compound 175A, 8-Fluoro-N-(cis-2-methylcyclohexyl)-5,6-dihydrobenzo[f]imidazo[1,5-d][1,4]oxazepine-10-carboxamide], the IC50 on human CD38 is less than 30 nM; on mouse CD38, 1 to 10 nM.
For `C[C@@H]1CCC[C@@H](C)C1NC(=O)c1cc(F)c2c(c1)-c1cncn1CCO2` (relative stereo) [Compound 177A, N-(trans-2-cis-6-Dimethylcyclohexyl)-8-fluoro-5,6-dihydrobenzo[f]imidazo[1,5-d][1,4]oxazepine-10-carboxamide] the same measures were less than 30 nM and 1 to 10 nM.
Regarding `C[C@@H]1C[C@H](CC(F)(F)F)CC[C@@H]1NC(=O)c1cc(Cl)c2c(c1)-c1cncn1CCO2` (relative stereo) [Compound 184A, 8-Chloro-N-(cis-2-methyl-cis-4-(2,2,2-trifluoroethyl)cyclohexyl)-5,6-dihydrobenzo[f]imidazo[1,5-d][1,4]oxazepine-10-carboxamide], the half-maximal inhibitory concentration (IC50) on human CD38 fell in the range of 100 to 1000 nM.
Still for that read-out and setting: the same measure for `C[C@@H]1C[C@H](CC(F)(F)F)CC[C@@H]1NC(=O)c1cc(F)c2c(c1)-c1cncn1CCO2` (relative stereo) [Compound 186A, 8-Fluoro-N-(cis-2-methyl-cis-4-(2,2,2-trifluoroethyl)cyclohexyl)-5,6-dihydrobenzo[f]imidazo[1,5-d][1,4]oxazepine-10-carboxamide]: 30 to 100 nM.
Take `O=C(N[C@@H]1CCCOC1)c1ccc2c(c1)-c1cncn1CCO2` [Compound 1A, (R)—N-(Tetrahydro-2H-pyran-3-yl)-5,6-dihydrobenzo[f]imidazo[1,5-d][1,4]oxazepine-10-carboxamide]: the IC50 on human CD38 was less than 30 nM; at mouse CD38, less than 1 nM.
For `O=C(N[C@@H]1CCS(=O)(=O)C1)c1ccc2c(c1)-c1cncn1CCO2` [Compound 2A, (R)—N-(1,1-Dioxidotetrahydrothiophen-3-yl)-5,6-dihydrobenzo[f]imidazo[1,5-d][1,4]oxazepine-10-carboxamide] the same measures were less than 30 nM and 1 to 10 nM.
The matching figures for `COCCO[C@H]1CC[C@H](NC(=O)c2ccc3c(c2)-c2cncn2CCO3)CC1` [Compound 3A, N-((1r,4r)-4-(2-Methoxyethoxy)cyclohexyl)-5,6-dihydrobenzo[f]imidazo[1,5-d][1,4]oxazepine-10-carboxamide]: less than 30 nM and 1 to 10 nM.
As for `CS(=O)(=O)N1CCC(NC(=O)c2ccc3c(c2)-c2cncn2CCO3)CC1` [Compound 4A, N-(1-(Methylsulfonyl)piperidin-4-yl)-5,6-dihydrobenzo[f]imidazo[1,5-d][1,4]oxazepine-10-carboxamide], the IC50 was less than 30 nM on human CD38 and 1 to 10 nM on mouse CD38.
Turning to `O=C(N[C@@H]1CCCOC1)c1ccc2c(n1)-n1cncc1CCO2` [Compound 42A, (R)—N-(tetrahydro-2H-pyran-3-yl)-6,7-dihydroimidazo[1,5-d]pyrido[3,2-b][1,4]oxazepine-2-carboxamide], at mouse CD38, the IC50 was 10 to 100 nM.
Take `O=C(N[C@@H]1CCCOC1)c1ccc2c(n1)-n1cnc(c1)CCO2` [Compound 43A, (Z)—N—((R)-Tetrahydro-2H-pyran-3-yl)-5,6-dihydro-1,4-(metheno)pyrido[3,2-b][1,4,6]oxadiazonine-10-carboxamide]: at human CD38, the IC50 is more than 1000 nM.
The same measure, in the same setting: the same measure for `COc1nc2cc(NC(=O)c3ccc4c(c3)-c3cncn3CCO4)ccc2s1` [Compound 44A, N-(2-Methoxybenzo[d]thiazol-5-yl)-5,6-dihydrobenzo[f]imidazo[1,5-d][1,4]oxazepine-10-carboxamide]: less than 30 nM.
On the same count and under the same terms, the same measure for `COCCOc1nc2cc(NC(=O)c3ccc4c(c3)-c3cncn3CCO4)ccc2s1` [Compound 45A, N-(2-(2-Methoxyethoxy)benzo[d]thiazol-5-yl)-5,6-dihydrobenzo[f]imidazo[1,5-d][1,4]oxazepine-10-carboxamide]: less than 30 nM.
The same measure, in the same setting: the same measure for `COCCO[C@H]1CC[C@H](NC(=O)c2cc3c(c(C)c2C)OCCn2cncc2-3)CC1` [Compound 179A, N-((1r,4r)-4-(2-Methoxyethoxy)cyclohexyl)-8,9-dimethyl-5,6-dihydrobenzo[f]imidazo[1,5-d][1,4]oxazepine-10-carboxamide]: 100 to 1000 nM.
For the compound `Cc1c(C(=O)NC2CCC(F)(F)CC2)cc2c(c1C)OCCn1cncc1-2` [Compound 180A, N-(4,4-Difluorocyclohexyl)-8,9-dimethyl-5,6-dihydrobenzo[f]imidazo[1,5-d][1,4]oxazepine-10-carboxamide], the IC50 at human CD38 lay within 100 to 1000 nM.
As for `O=C(NC1CCCC(C(F)(F)F)C1)c1cc(Cl)c2c(c1)-c1cncn1CCO2` (stereo not drawn) [Compound 181A, 8-Chloro-N-(3-(trifluoromethyl)cyclohexyl)-5,6-dihydrobenzo[f]imidazo[1,5-d][1,4]oxazepine-10-carboxamide], the IC50 at human CD38 is less than 30 nM.
For `Cc1cc(CC(F)(F)F)ccc1NC(=O)c1cc(Cl)c2c(c1)-c1cncn1CCO2` [Compound 182A, 8-Chloro-N-(2-methyl-4-(2,2,2-trifluoroethyl)phenyl)-5,6-dihydrobenzo[f]imidazo[1,5-d][1,4]oxazepine-10-carboxamide], the IC50 at human CD38 lay within 30 to 100 nM.
The same measure, in the same setting: as for `CC1CC(CC(F)(F)F)CCC1NC(=O)c1cc(Cl)c2c(c1)-c1cncn1CCO2` (stereo not drawn) [Compound 183A, 8-Chloro-N-(2-methyl-4-(2,2,2-trifluoroethyl)cyclohexyl)-5,6-dihydrobenzo[f]imidazo[1,5-d][1,4]oxazepine-10-carboxamide], the figure is less than 30 nM.
Take `CC1CC(CC(F)(F)F)CCC1NC(=O)c1cc(F)c2c(c1)-c1cncn1CCO2` (stereo not drawn) [Compound 185A, 8-Fluoro-N-(2-methyl-4-(2,2,2-trifluoroethyl)cyclohexyl)-5,6-dihydrobenzo[f]imidazo[1,5-d][1,4]oxazepine-10-carboxamide]: the half-maximal inhibitory concentration (IC50) at human CD38 was less than 30 nM.
`O=C(N[C@H]1CC[C@H](OCC(F)(F)F)CC1)c1cc2c(c(F)c1F)OCCn1cncc1-2` [Compound 187A, 8,9-Difluoro-N-((1r,4r)-4-(2,2,2-trifluoroethoxy)cyclohexyl)-5,6-dihydrobenzo[f]imidazo[1,5-d][1,4]oxazepine-10-carboxamide]: at human CD38, the IC50 is less than 30 nM.
Regarding `O=C(N[C@H]1CC[C@@H](OCC(F)(F)F)CC1)c1cc2c(c(F)c1F)OCCn1cncc1-2` [Compound 188A, 8,9-Difluoro-N-((1s,4s)-4-(2,2,2-trifluoroethoxy)cyclohexyl)-5,6-dihydrobenzo[f]imidazo[1,5-d][1,4]oxazepine-10-carboxamide], the IC50 on human CD38 is 100 to 1000 nM.
Consider `Cc1c(C(=O)NC2CCC(OCC(F)(F)F)CC2)cc2c(c1C)OCCn1cncc1-2` (stereo not drawn) [Compound 189A, 8,9-Dimethyl-N-(4-(2,2,2-trifluoroethoxy)cyclohexyl)-5,6-dihydrobenzo[f]imidazo[1,5-d][1,4]oxazepine-10-carboxamide], for which the IC50 at human CD38 is 100 to 1000 nM.
Turning to `COCCO[C@H]1CC[C@H](NC(=O)c2cc3c(c(Cl)c2C)OCCn2cncc2-3)CC1` [Compound 191A, 8-Chloro-N-((1r,4r)-4-(2-methoxyethoxy)cyclohexyl)-9-methyl-5,6-dihydrobenzo[f]imidazo[1,5-d][1,4]oxazepine-10-carboxamide], the half-inhibitory concentration (IC50) at human CD38 was in the range of 30 to 100 nM.

A word on the IC50: it is the point on the concentration scale where inhibition reaches its midpoint.
